Measurements taken from patent US7517890B2, “GTPase inhibitors and methods of use” (Children's Hospital Medical Center, priority 2003, dated 2009).

What was measured:
[1] = biological target: T1, RhoA binding to PDZ-RhoGEF (Homo sapiens, UniProt P61586); experiment: Complex formation assay, RhoA with PDZ-RhoGEF; conditions: varying concentrations of compound
T1 construct: made in house; host or cells: Cos-7 (PDZ-RhoGEF, used as lysate)
Protocol: Trio and Tiam-1 co-precipitate with GST-Rac1, but not GST or GST-Cdc42.
In FIG. 2A, 0.5 μg of (His)6-tagged TrioN was incubated with GST alone or nucleotide-free, GST-fused Cdc42 or Rac1 (2 μg) in the binding buffer containing different concentrations of NSC23766 and 10 μl suspended glutathione-agarose. After an incubation at 4° C. for 30 minutes, the beads associated (His)6-TrioN were detected by anti-His Western blotting. The blots were quantified by densitometry analysis. The results are representative of three measurements. In FIG. 2B, myc-tagged Tiam1 expressed in Cos-7 cell lysates were incubated with (His)6-Rac1 in the presence of increasing concentrations of NSC23766. The association of Rac1 with Tiam1 was examined by anti-His blot after anti-myc immunoprecipitation. In FIG. 2C, the AU-tagged PDZ-RhoGEF was expressed in Cos-7 lysates and incubated with GST or GST-RhoA in the presence of varying concentrations of NSC23766. The RhoA associated PDZ-RhoGEF was probed with anti-AU antibody after affinity precipitation by glutathione agarose beads. In FIG. 2D, (His)6-Rac1 loaded with GTPγ S was incubated with GST-BcrGAP or GST-PAK1 (PBD) in the presence or absence of 200 μM NSC23766 and the interaction with GSTBcrGAP or GST-PAK1 was probed by anti-His blot after affinity precipitation by glutathione agarose beads.

[2] = biological target: PDZ-RhoGEF-stimulated mantGDP/GTP exchange of RhoA (Homo sapiens, UniProt P61586); experiment: In vitro guanine nucleotide exchange assay (mant-GDP), RhoA / PDZ-RhoGEF; type: biochemical; conditions: 200 μM compound
Chain of PDZ-RhoGEF-stimulated mantGDP/GTP exchange of RhoA (P61586 whole entry): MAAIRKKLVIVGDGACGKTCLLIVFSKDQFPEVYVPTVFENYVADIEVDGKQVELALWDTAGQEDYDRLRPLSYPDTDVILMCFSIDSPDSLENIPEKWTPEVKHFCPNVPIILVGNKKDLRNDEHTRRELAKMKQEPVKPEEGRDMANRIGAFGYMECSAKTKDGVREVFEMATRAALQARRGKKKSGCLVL
Protocol: In vitro guanine nucleotide exchange assay. For these, 200 nM Rac1 loaded with mant-GDP is incubated at 25° C. in an exchange buffer containing 100 mM NaCl, 5 mM MgCl2, 50 mM Tris-HCl (pH 7.6), and 0.5 mM GTP in the absence or presence of 200 nM Trio. The mant-GDP fluorescence changes in the course of the exchange reactions are monitored with an excitation wavelength at 360 nm and the emission wavelength at 440 nm by a Cary Ellipse fluorescence spectrometer (Varian, Inc.).
In FIG. 3. […] In FIG. 3A, NSC23766 inhibited TrioN catalyzed GDP/GTP exchange of Rac1 in a dose dependent manner. 200 nM Rac1 loaded with mant-GDP was incubated at 25° C. in an exchange buffer containing 100 mM NaCl, 5 mM MgCk2, 50 mM Tris-HCl (PH 7.6), and 0.5 mM GTP in the absence (top line) or presence of 100 nM TrioN. Increasing concentrations of NSC23766 were included in the exchange buffer as indicated. In FIG. 3B, NSC23766 had no effect on the Intersectin-stimulated GDP/GTP exchange of Cdc42. 200 nM Cdc42 loaded with mant-GDP was incubated in the exchange buffer in the absence (top line) or presence of 100 nM Intersectin with or without 200 μM NSC23766. In FIG. 3C, the exchange reaction of RhoA catalyzed by PDZ-RhoGEF was carried out similarly in the presence or absence of 200 μM NSC23766.

NIH 3T3 cells = experiment: Cell growth assay, wild type and RacL61- or GEF-transfected NIH 3T3 cells; type: cell-based; conditions: 5% serum, 100 μM compound
[3] = system: Tiam1-expressing NIH 3T3 cells; experiment: Transformation of GEF-expressing NIH 3T3 cells (foci, soft agar); type: cell-based; conditions: foci: 50 μM every two days, 14 days, soft agar: 100 μM
PC-3 cells [4] = experiment: Matrigel cell invasion assay; conditions: 25 μM compound, 24 hrs
Protocol: Cell invasion assays. The cell invasion assays are performed using 6.4-mm Biocoat Matrigel invasion chambers with 8.0-micron pore size PET membrane (Becton-Dickinson) according to the manufactory instructions. Briefly, 5×10^4 cells are resuspended in 0.5 ml of serum free culture medium and added to the upper chamber. 10% fetal bovine serum in the culture medium is used as a chemo-attractant in the lower chamber. After the cells are incubated for overnight, the number of cell passed through the Matrigel is counted.
Cells invaded through Matrigel matrix were visualized with Giemasa staining.

PC-3 cells [5] = experiment: PC-3 cell growth (CellTiter 96 AQueous assay); conditions: 5% serum, indicated concentrations of compound
Protocol: Cell growth assay. […] The growth rate of the prostate PC-3 cells is measured by the CellTiter 96 AQueous assay (Promega). 1,500 cells/well in 200 μl of 5% FBS medium are plated in 96-well plates and are grown under normal conditions. Cultures are assayed in 0, 1, 2, 3, 4, or 5 days by the addition of 20 μl of the combined MTS/PMS solution followed by incubation for one hour at 37° C. Absorbency is measured at a wavelength of 490 nm on an automated microplate reader.
The cells were split in triplicate in 96-wells at 1.5×10^3 cells per well. Cell numbers were assayed by using CellTiter 96 AQueous cell proliferation assay kit in different days.

PC-3 cells [6] = experiment: Anchorage independent growth of PC-3 cells in soft agar
Text: Anchorage independent growth.
The cells were split in triplicate in 96-wells at 1.5×10^3 cells per well.

Swiss 3T3 cells = experiment: Immunofluorescence of PDGF-stimulated lamellipodia formation (actin staining); conditions: for PDGF induction of lamellipodia at the cell edges in the presence of compound: 100 μM compound, 10 nM PDGF
Protocol: Immunofluorescence. […] The cellular actin is stained with TRITC-labeled phalloidin (Sigma) at 10 μg/ml in PBS for 40 min at room temperature. The actin and cell morphological changes are visualized by fluorescence microscopy.
The cells were fixed and stained with Rhodamine-labeled phalloidin.

endogenous RhoA = endogenous RhoA (Mus musculus, UniProt Q9QUI0); experiment: Endogenous Rho GTPase activity assay (GST-Rhotekin pull-down), RhoA in NIH 3T3 cells; conditions: NIH 3T3 cells in 10% serum
Chain of endogenous RhoA (Q9QUI0 whole entry): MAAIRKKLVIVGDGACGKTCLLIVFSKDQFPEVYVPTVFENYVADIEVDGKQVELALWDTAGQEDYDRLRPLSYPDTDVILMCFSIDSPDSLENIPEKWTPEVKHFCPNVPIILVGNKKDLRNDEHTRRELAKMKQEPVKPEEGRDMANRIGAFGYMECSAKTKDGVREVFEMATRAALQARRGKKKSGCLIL
Protocol: Endogenous Rho GTPase activity assay. […] Cells are grown in log phase in a 10 cm dish, and are starved in 0.5% serum medium or indicated otherwise for 24 hrs prior to lysis in a buffer containing 20 mM Tris-HCl (pH 7.6), 100 mM NaCl, 10 mM MgCl2, 1% NP-40, 10% glycerol, and 1× proteases inhibitor cocktail (Roch). Lysates are clarified and the protein concentrations are normalized. The cell lysates containing equal amount of proteins are incubated with 10 μg GST- or His6-fusion probes for 40 min at 4° C. under constant rotation. The beads are washed twice with the lysis buffer, and the bound-Rho GTPases are detected by anti-Rac1 (Upstate), or anti-Cdc42 (BD Transduction Laboratories) Western blotting. Quantification of the Western blots is carried out using a LAS-1000 luminescent image analyzer (Fujifilm medical system, USA, Inc.).
Cell lysates containing similar amount of Rac1, Cdc42 or RhoA were incubated with the agarose immobilized GST-PAK1, GST-WASP or GST-Rhotekin, and the co-precipitates were subjected to anti-Rac1, Cdc42 or RhoA Western blot analysis to reveal the amount of GTP-Bound Rho proteins.

T1 sequence (P61586 whole entry): as the sequence (P61586 whole entry) above

`CCN(CC)CCCC(C)Nc1nc(C)cc(Nc2ccc3nc(C)cc(N)c3c2)n1` (stereo not drawn) [compound 23766, N^6-(2-((4-(diethylamino)-1-methylbutyl)amino)-6-methyl-4-pyrimidinyl)-2-methyl-4,6-quinolinediamine] was tested, and the “effect on RhoA binding to PDZ-RhoGEF” value [1] was “does not interfere”, the “effect on PDZ-RhoGEF-stimulated mantGDP/GTP exchange of RhoA” value [2] was “little impact” and the “growth of wild type NIH 3T3 cells” value (NIH 3T3 cells) was “slow the growth”. The “growth rate of Rac1L61 expressing NIH 3T3 cells” value (NIH 3T3 cells) was “no effect”, the “cell growth induced by the Rac specific GEF Trio” value (NIH 3T3 cells; GEF expressing NIH 3T3 cells) was “capable of inhibiting” and the “Rac GEF stimulated cell growth and transformation” value [3] was “specifically inhibited”. For the same compound, the PC-3 cell invasion (PC-3 cells [4]) was “significantly inhibits”, the “proliferation rates of PC-3 cells” value (PC-3 cells [5]) was “inhibited by compound 23766 in a dose dependent manner” and the “size of colonies of treated cells versus untreated” value (PC-3 cells [6]) was “much smaller”. For the same compound, the colony-forming activity remaining (PC-3 cells [6]; 25 μM compound) was “Approximately 10%”, the colony-forming activity remaining (PC-3 cells [6]; 50 μM compound) was roughly 1% and the PDGF-stimulated lamellipodia formation (Swiss 3T3 cells; 50 μM compound, overnight serum starvation, 10 nM PDGF (FIG. 4C legend)) was “inhibited PDGF-stimulated lamellipodia formation”. The “PDGF induction of lamellipodia at the cell edges in the presence of compound” value (Swiss 3T3 cells; 5 min) was “only marginally effective”, the “PDGF induction of lamellipodia at the cell edges in the presence of compound” value (Swiss 3T3 cells; 10 min) was “completely ineffective” and the “level of RhoA-GTP in cells” value (endogenous RhoA) was “slightly increased level”.
